Literature values in US20180263953A1, “Sustained Release Cannabinoid Formulations” (CannTab Therapeutics, Limited, priority 2016, published 2018).

Key:
[1] = after administration
[2] = low solubility and unknown permeability; NICHD/FDA Oral Formulations Platform Report 1

## CCCCCc1cc(O)c2c(c1)OC(C)(C)[C@@H]1CCC(C)=C[C@@H]21 [Dronabinol, (−)-trans-Δ^9-tetrahydrocannabinol]
[1]
  duration of appetite stimulant effect: ≥ 24 h
[2]
  BCS class: class 2 or class 4
